Results from PubChem BioAssay (NCI).
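Step 1: Grow cells in 96-well plates. Step 2: Expose to compound for 48 hours at 5 concentrations. Step 3: Interpolate endpoints linearly; if unreached, use highest concentration. TGI: concentration producing complete growth inhibition.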

How the values were obtained:
Test in all cases: DTP human tumour cell line panel, 48 h
786-0 renal = tested on: 786-0 renal
A549 NSCLC = tested on: A549 NSCLC
ACHN renal = tested on: ACHN renal
BT-549 breast = tested on: BT-549 breast
CCRF-CEM leukemia = tested on: CCRF-CEM leukemia
COLO 205 colon = tested on: COLO 205 colon
DU-145 prostate = tested on: DU-145 prostate
EKVX NSCLC = tested on: EKVX NSCLC
HCC-2998 colon = tested on: HCC-2998 colon
HCT-116 colon = tested on: HCT-116 colon
HCT-15 colon = tested on: HCT-15 colon
HL-60(TB) leukemia = tested on: HL-60(TB) leukemia
HOP-62 NSCLC = tested on: HOP-62 NSCLC
HOP-92 NSCLC = tested on: HOP-92 NSCLC
HS 578T breast = tested on: HS 578T breast
HT29 colon = tested on: HT29 colon
IGROV1 ovarian = tested on: IGROV1 ovarian
K-562 leukemia = tested on: K-562 leukemia
KM12 colon = tested on: KM12 colon
LOX IMVI melanoma = tested on: LOX IMVI melanoma
M14 melanoma = tested on: M14 melanoma
MALME-3M melanoma = tested on: MALME-3M melanoma
MCF7 breast = tested on: MCF7 breast
MDA-MB-231 breast = tested on: MDA-MB-231 breast
MDA-MB-435 = tested on: MDA-MB-435
MDA-N = tested on: MDA-N
MOLT-4 leukemia = tested on: MOLT-4 leukemia
NCI-H226 lung = tested on: NCI-H226 lung
NCI-H23 lung = tested on: NCI-H23 lung
NCI-H460 lung = tested on: NCI-H460 lung
NCI-H522 lung = tested on: NCI-H522 lung
NCI/ADR-RES ovarian = tested on: NCI/ADR-RES ovarian
OVCAR-3 ovarian = tested on: OVCAR-3 ovarian
OVCAR-4 ovarian = tested on: OVCAR-4 ovarian
OVCAR-5 ovarian = tested on: OVCAR-5 ovarian
OVCAR-8 ovarian = tested on: OVCAR-8 ovarian
PC-3 prostate = tested on: PC-3 prostate
RPMI-8226 leukemia = tested on: RPMI-8226 leukemia
RXF 393 renal = tested on: RXF 393 renal
SF-268 CNS = tested on: SF-268 CNS
SF-295 CNS = tested on: SF-295 CNS
SF-539 CNS = tested on: SF-539 CNS
SK-MEL-28 melanoma = tested on: SK-MEL-28 melanoma
SK-MEL-5 melanoma = tested on: SK-MEL-5 melanoma
SK-OV-3 ovarian = tested on: SK-OV-3 ovarian
SN12C renal = tested on: SN12C renal
SNB-19 CNS = tested on: SNB-19 CNS
SNB-75 CNS = tested on: SNB-75 CNS
SR leukemia = tested on: SR leukemia
SW-620 colon = tested on: SW-620 colon
T-47D breast = tested on: T-47D breast
TK-10 renal = tested on: TK-10 renal
U251 CNS = tested on: U251 CNS
UACC-257 melanoma = tested on: UACC-257 melanoma
UACC-62 melanoma = tested on: UACC-62 melanoma
UO-31 renal = tested on: UO-31 renal
CAKI-1 renal = tested on: CAKI-1 renal
SK-MEL-2 melanoma = tested on: SK-MEL-2 melanoma

`O=NN1CCNC1Cc1ccccc1` (centres undefined) showed a TGI (786-0 renal) of over 100 µM, a TGI (A549 NSCLC) of over 100 µM and a TGI (ACHN renal) of over 100 µM. For the same compound, the TGI (BT-549 breast) was over 100 µM, the TGI (CCRF-CEM leukemia) was over 100 µM and the TGI (COLO 205 colon) was over 100 µM. It also gave a TGI (DU-145 prostate) of over 100 µM, a TGI (EKVX NSCLC) of over 100 µM and a TGI (HCC-2998 colon) of over 100 µM. The TGI (HCT-116 colon) was over 100 µM, the TGI (HCT-15 colon) was over 100 µM and the TGI (HL-60(TB) leukemia) was over 100 µM. It also gave a TGI (HOP-62 NSCLC) of over 100 µM, a TGI (HOP-92 NSCLC) of over 100 µM and a TGI (HS 578T breast) of over 100 µM. For the same compound, the TGI (HT29 colon) was over 100 µM, the TGI (IGROV1 ovarian) was over 100 µM and the TGI (K-562 leukemia) was over 100 µM. For the same compound, the TGI (KM12 colon) was over 100 µM, the TGI (LOX IMVI melanoma) was over 100 µM and the TGI (M14 melanoma) was over 100 µM. It also gave a TGI (MALME-3M melanoma) of over 100 µM, a TGI (MCF7 breast) of over 100 µM and a TGI (MDA-MB-231 breast) of over 100 µM. The TGI (MDA-MB-435) was over 100 µM, the TGI (MDA-N) was over 100 µM and the TGI (MOLT-4 leukemia) was over 100 µM. The TGI (NCI-H226 lung) was over 100 µM, the TGI (NCI-H23 lung) was over 100 µM and the TGI (NCI-H460 lung) was over 100 µM. It also gave a TGI (NCI-H522 lung) of over 100 µM, a TGI (NCI/ADR-RES ovarian) of over 100 µM and a TGI (OVCAR-3 ovarian) of over 100 µM. The TGI (OVCAR-4 ovarian) was over 100 µM, the TGI (OVCAR-5 ovarian) was over 100 µM and the TGI (OVCAR-8 ovarian) was over 100 µM. It also gave a TGI (PC-3 prostate) of over 100 µM, a TGI (RPMI-8226 leukemia) of over 100 µM and a TGI (RXF 393 renal) of over 100 µM. For the same compound, the TGI (SF-268 CNS) was over 100 µM, the TGI (SF-295 CNS) was over 100 µM and the TGI (SF-539 CNS) was over 100 µM. It also gave a TGI (SK-MEL-28 melanoma) of over 100 µM, a TGI (SK-MEL-5 melanoma) of over 100 µM and a TGI (SK-OV-3 ovarian) of over 100 µM. For the same compound, the TGI (SN12C renal) was over 100 µM, the TGI (SNB-19 CNS) was over 100 µM and the TGI (SNB-75 CNS) was 72.6 µM. It also gave a TGI (SR leukemia) of over 100 µM, a TGI (SW-620 colon) of over 100 µM and a TGI (T-47D breast) of over 100 µM. The TGI (TK-10 renal) was over 100 µM, the TGI (U251 CNS) was over 100 µM and the TGI (UACC-257 melanoma) was over 100 µM. It also gave a TGI (UACC-62 melanoma) of over 100 µM and a TGI (UO-31 renal) of over 100 µM.

In the case of `O=C(NC(=S)Nc1ccc2c(c1)Sc1ccccc1O2)c1ccccc1`, the TGI (786-0 renal) is reported as 48.1 µM, the TGI (A549 NSCLC) is reported as over 100 µM and the TGI (ACHN renal) is reported as over 100 µM. For the same compound, the TGI (BT-549 breast) was over 100 µM, the TGI (CAKI-1 renal) was over 100 µM and the TGI (CCRF-CEM leukemia) was 95.9 µM. The TGI (COLO 205 colon) was over 100 µM, the TGI (DU-145 prostate) was over 100 µM and the TGI (EKVX NSCLC) was over 100 µM. The TGI (HCC-2998 colon) was 49.2 µM, the TGI (HCT-116 colon) was over 100 µM and the TGI (HCT-15 colon) was over 100 µM. For the same compound, the TGI (HL-60(TB) leukemia) was over 100 µM, the TGI (HOP-62 NSCLC) was over 100 µM and the TGI (HOP-92 NSCLC) was 69 µM. For the same compound, the TGI (HS 578T breast) was over 100 µM, the TGI (HT29 colon) was over 100 µM and the TGI (IGROV1 ovarian) was over 100 µM. For the same compound, the TGI (K-562 leukemia) was over 100 µM, the TGI (KM12 colon) was over 100 µM and the TGI (LOX IMVI melanoma) was over 100 µM. It also gave a TGI (M14 melanoma) of over 100 µM, a TGI (MALME-3M melanoma) of 93.2 µM and a TGI (MCF7 breast) of over 100 µM. The TGI (MDA-MB-231 breast) was 57.8 µM, the TGI (MDA-MB-435) was over 100 µM and the TGI (MDA-N) was over 100 µM. It also gave a TGI (MOLT-4 leukemia) of over 100 µM, a TGI (NCI-H226 lung) of over 100 µM and a TGI (NCI-H23 lung) of over 100 µM. It also gave a TGI (NCI-H460 lung) of over 100 µM, a TGI (NCI-H522 lung) of over 100 µM and a TGI (NCI/ADR-RES ovarian) of over 100 µM. The TGI (OVCAR-3 ovarian) was over 100 µM, the TGI (OVCAR-4 ovarian) was 92.3 µM and the TGI (OVCAR-5 ovarian) was over 100 µM. The TGI (OVCAR-8 ovarian) was over 100 µM, the TGI (PC-3 prostate) was 28.5 µM and the TGI (RPMI-8226 leukemia) was over 100 µM. For the same compound, the TGI (RXF 393 renal) was 64.5 µM, the TGI (SF-268 CNS) was over 100 µM and the TGI (SF-295 CNS) was 79.4 µM. The TGI (SF-539 CNS) was 64.6 µM, the TGI (SK-MEL-2 melanoma) was 48.8 µM and the TGI (SK-MEL-28 melanoma) was over 100 µM. It also gave a TGI (SK-MEL-5 melanoma) of over 100 µM, a TGI (SK-OV-3 ovarian) of over 100 µM and a TGI (SN12C renal) of over 100 µM. For the same compound, the TGI (SNB-19 CNS) was over 100 µM, the TGI (SNB-75 CNS) was 40.3 µM and the TGI (SR leukemia) was 16.1 µM. It also gave a TGI (SW-620 colon) of over 100 µM, a TGI (T-47D breast) of over 100 µM and a TGI (TK-10 renal) of 54.3 µM. The TGI (U251 CNS) was 49.6 µM, the TGI (UACC-257 melanoma) was over 100 µM and the TGI (UACC-62 melanoma) was over 100 µM. It also gave a TGI (UO-31 renal) of over 100 µM.
